Holding throughout (assay type): cell-based
For series [1], the system named is Fibroblasts. The series can be described thus: Uptake of homopolymers by fibroblasts, single cell fluorescence analysis with syto-13. As to conditions: fibroblasts stained with syto-13, relative intensity ± standard deviation, n = number of cells. As to the method: (§1) Fibroblasts cells were incubated for 24 hrs with and without fetal calf serum. Cells harvested at zero time served as controls. They were subjected to all of the analyses performed on experimental cells. Cells were harvested as described in ‘section V. Methods and Materials’. Macrophages were treated the same as previously described for fibroblasts except human serum was used in place of fetal calf serum and they were not cultured without serum. Cells were incubated with predetermined amounts of nucleotides with and without peptide Incubations were stopped at zero time and 24 hrs. The media harvested at zero and 24 hrs was saved for analysis for peptides and nucleotides. Cells were washed and harvested as described previously. The wash was saved for analysis of peptides and nucleotides. Some cells were sonicated and aliquots analyzed for radioactivity by a liquid scintillation spectrometer (counter). […] Spectrophotometric analysis quantifies the amount of nucleotide retained. VI: Extraction of lipids—The non-saponifiable lipids and free fatty acids were extracted using petroleum ether (30–60° C.). Neutral lipids were extracted with petroleum ether without prior saponification. […] The latter two methods, when used, necessitate extensive chromatographic separation of mevalonate from the phospholipids and neutral lipids. […] Control experiments in which the reaction was stopped at zero time and in which the enzyme preparation is omitted show no radioactivity is extracted when the usual incubation, saponification, and isolation procedures were performed.
(§2) a) Isolating the peptides then b) incubating the peptide sample with predetermined amounts of nucleotides with and without peptides. After this, the nucleotides are transferred into the cells. Cells were treated with homopolymers in the presence and absence of the peptides. Uptake was determined as described under Methods and Materials, above. The polynucleotides were quantified spectrophotometrically and by single cell fluorescence analysis using syto-13 (Molecular Probes).
Fibroblasts were cultured as described under V.Methods and Materials. Cells were stained with syto-13 (Molecular Probes). Single cell fluorescence analysis was performed using a Zeiss microsope photometer. Values are relative intensity ±standard deviation. N=number of cells.

Series [2] has as its system human fibroblasts. The series can be described thus: Uptake of polynucleotides in the presence and absence of peptides by human fibroblasts, spectrophotometric. Details: Absorbance, Peptides / Absorbance, Without Peptides: dose or concentration left out as unconfirmed. The conditions noted are these: 24 hrs minus zero time values; for μ grams, Peptides / Absorbance, Peptides: with peptides; for Absorbance, Peptides / Absorbance, Without Peptides: absorbance at 260 nm, ± standard deviation. As to the method:
1. Analysis of control cells stopped at zero time gives the original content of nucleotides of interest.
2. Analysis of control cells stopped after 24 hour incubation gives the change in nucleotide content during the 24 hr period. That is, 24 hr content of control cells minus zero time control cells nucleotide content equals net change.
3. Analysis of nucleotide treated cells at zero time incubation gives the initial content and/or bound nucleotides.
4. Analysis of nucleotide treated cells at 24 hour time gives the amount present after 24 hours.
5. 24 hour content minus zero time content gives the net change in nucleotide content.
6. The net content of the 24 hr nucleotide treated cells minus the zero time content of nucleotides gives the amount transported by the peptides.
7. The net values are previously corrected for the amount in the original media and wash for the treated cells.
as §1, §2
The cells were cultured as described under Methods, above. The experiments were stopped at zero time and 24 hours. Values are obtained by subtracting initial zero time values from those of 24 hrs. Values are ±standard deviation. Absorbance measured spectrophotometrically at […].

The subject of series [3] is cells. The series can be described thus: Determination of cellular loci of administered polynucleotides by differential centrifugation. On the set-up: Absorbance, Nuclear Fraction / Absorbance, Microsomal Fraction: dose or concentration left out as unconfirmed. As to conditions: for μ grams, Microsomal Fraction / μ grams, Nuclear Fraction: calculated after subtracting zero time control values from experimental values; for Absorbance, Microsomal Fraction / Absorbance, Nuclear Fraction: observed values, absorbance at 260 nm. The procedure: as §1
Cells were cultured and treated as described under Methods, above. Cells were subjected to differential centrifugation. μ grams calculated after correction of values by subtracting zero time control values from experimental values. No significant absorbances of nucleotides were detected in the experimental samples in the mitochondrial-lysosomal fraction when zero time control values were subtracted from the experimental values. Absorbance was measured spectrophotometrically at […]. […] In a preferred embodiment of this invention, the target cells are smooth muscle cells and macrophages which are found in atheromatous plaques. The plaques are a focal thickening of the intima caused by proliferation of smooth muscle cells.

Polyadenylic acid: in series [1], the “Fluorescence Relative Intensity, Control” value is given as 11.7 ± 3.8 (n = 22) and the “Fluorescence Relative Intensity, Experimental” value is reported as 27.4 ± 7.5 (n = 23). Further, in series [2], the “μ grams, Peptides” value is reported as 252 μ grams; the “Absorbance, Peptides” value was 0.200 ± 0.101; the “μ grams, Without Peptides” value stood at 59 μ grams; the “Absorbance, Without Peptides” value came out at 0.047 ± 0.025. For the same substance, in series [3], the “μ grams, Microsomal Fraction” value is 155 μ grams; the “Absorbance, Microsomal Fraction” value amounted to 0.242 ± 0.038; the “μ grams, Nuclear Fraction” value was 59.1 μ grams; the “Absorbance, Nuclear Fraction” value stood at 0.265 ± 0.061.

For the substance Polycytidylic acid, in series [1], the “Fluorescence Relative Intensity, Control” value is recorded as 3.3 ± 0.6 (n = 14) and the “Fluorescence Relative Intensity, Experimental” value is reported as 14.9 ± 1.6 (n = 14). Moreover, in series [2], the “μ grams, Peptides” value was 380 μ grams; the “Absorbance, Peptides” value is 0.209 ± 0.028; the “μ grams, Without Peptides” value is given as 94 μ grams; the “Absorbance, Without Peptides” value stood at 0.052 ± 0.031. In series [3], the “μ grams, Microsomal Fraction” value is on record as 153 μ grams; the “Absorbance, Microsomal Fraction” value is 0.236 ± 0.025; the “μ grams, Nuclear Fraction” value is 107.4 μ grams; the “Absorbance, Nuclear Fraction” value is recorded as 0.254 ± 0.026.

As for Polyguanylic acid, in series [1], the “Fluorescence Relative Intensity, Control” value is recorded as 13.1 ± 3.1 (n = 24) and the “Fluorescence Relative Intensity, Experimental” value is recorded as 39.2 ± 9.5 (n = 17). Also, in series [2], the “μ grams, Peptides” value is 1160 μ grams; the “Absorbance, Peptides” value amounted to 0.444 ± 0.058; the “μ grams, Without Peptides” value was found to be 580 μ grams; the “Absorbance, Without Peptides” value stood at 0.223 ± 0.084. In series [3], the “μ grams, Nuclear Fraction” value was 747.7 μ grams and the “Absorbance, Nuclear Fraction” value is 0.354 ± 0.030.

For Polyuridylic acid, in series [1], the “Fluorescence Relative Intensity, Control” value is reported as 4.4 ± 1.3 (n = 22) and the “Fluorescence Relative Intensity, Experimental” value is listed as 16.8 ± 4.6 (n = 23). In series [2], the “μ grams, Peptides” value is 436 μ grams; the “Absorbance, Peptides” value was 0.370 ± 0.07; the “μ grams, Without Peptides” value was determined as 82 μ grams; the “Absorbance, Without Peptides” value worked out at 0.071 ± 0.013. In series [3], the “μ grams, Microsomal Fraction” value was 186 μ grams; the “Absorbance, Microsomal Fraction” value is listed as 0.313 ± 0.030; the “μ grams, Nuclear Fraction” value is listed as 246.1 μ grams; the “Absorbance, Nuclear Fraction” value is recorded as 0.326 ± 0.050.

The values are drawn from patent US7109173B1, “Transport of nucleotides, oligonucleotides and polynucleotides into the cytoplasm and nucleus of cells by peptides” (priority 2004, dated 2006).
